Data set [1] deals with HIV-1 envelope mediated fusion of CHO gp160 cells with CD4 HeLa cells. The procedure:
The peptides were tested for inhibiting the fusion of HIV-1 Env expressing cells (CHO gp 160) with CD4expressing cells (CD4 HeLa) (D. C. Chan, et al., Proc. Natl. Acad. Sci., 95:15613-15617 (1998)).
(§1) Assessment of viral infectivity and syncytia formation were carried out as described by Eckert et al., Cell, 99:103-115 (1999). In both inhibition assays, peptide stocks were dissolved in dimethylsulfoxide and their concentrations determined by absorbance in guanidine at 280 nm. The final concentration of dimethylsulfoxide in tissue culture media was 1% in all experiments. Inhibition of cell-cell fusion (syncytia formation) (G. J. Nabel, Nature 410, 1002-1007 (2001); D. C. Chan, C. T. Chutkowski, P. S. Kim, Proc. Natl. Acad. Sci. 95, 15613-15617 (1998)) was assayed by co-culturing 3×10^4 Chinese hamster ovary (CHO) cells expressing HXB2 envelope and tat and rev with 5×10^4 HeLa cells expressing CD4 and LTR-driven β-galactosidase in the presence of varying concentrations of peptides. The CHO and HeLa cells were incubated in the presence of peptides for 20 hours, and stained with 5-bromo-4-chloro-3-indolyl-β-D-galactoside (X-gal) to detect the syncytia, which were visualized by microscopy and counted manually. In the viral infectivity assay, the ability of the peptides to inhibit HIV-1 infection was assayed using a recombinant luciferase-encoding HIV-1 (G. J. Nabel, Nature 410, 1002-1007 (2001); D. C. Chan, C. T. Chutkowski, P. S. Kim, Proc. Natl. Acad. Sci. 95, 15613-15617 (1998)). 293T cells were co-transfected with an envelope-deficient HIV-1 genome with a luciferase gene (NL43LucR-E-) [B. K. Chen, K. Saksela, R. Andino, D. Baltimore, J. Virol. 68, 654-660 (1994)] and the HXB2 gp160 expression vector (pCMVHXB2 gpl60). Low-speed centrifugation was used to clear the viral supernatants of cellular debris. The supernatant containing the viruses was used to infect HOS cells expressing CD4 and CXCR4 (HOS-CD4/Fusin cells, N. Landau, National Institutes of Health AIDS Reagent Program) in the presence of varying concentrations of peptides. The HOS cells were harvested 48 hours post-infection, and luciferase activity was monitored using a Wallac AutoLumat LB953 luminometer. In both assays, the IC50, the concentration needed to inhibit 50% of cell-cell fusion events or luciferase activity, was calculated from fitting the data to the equation, y=k/(1+[peptide]/IC50), where y=number of syncytia or luciferase activity and k is a scaling constant.
To test how well the HIV-1-neutralizing epitope was recapitulated, two assays were used to measure the potency of the designed peptides in inhibiting HIV-1 envelope-mediated membrane fusion. The biological activity of the designed peptides were first measured by their ability to inhibit fusion of HeLa cells expressing CD4 and chemokine receptors and CHO expressing HIV envelope protein (D. C. Chan, C. T. Chutkowski, P. S. Kim, Proc. Natl. Acad. Sci. 95: 15613-15617 (1998)).

Data set [2] has as its system recombinant luciferase-expressing HIV-1 infecting HOS-CD4/Fusin cells. The procedure: The peptides were tested for inhibition of CD4 positive target cells (HOST4) by recombinant, luciferase-expressing HIV-1 (D. C. Chan, C. T. Chutkowski, P. S. Kim, Proc. Natl. Acad. Sci. 95, 15613-15617 (1998)).
as §1
In a second assay, the ability of the peptides to inhibit HIV infection of HOS cells expressing CD4 and CXCR4 was measured, using a luciferase-based reporter assay (D. C. Chan, C. T. Chutkowski, P. S. Kim, Proc. Natl. Acad. Sci. 95: 15613-15617 (1998); Chen, B. K., et al.,J. Virol., 68(2):[…] (1994)).

A short description of data set [3]: Circular dichroism spectroscopy. The class given is physicochemical. Particulars: PBS, pH 7.0, 25° C., C34-GCN4 with about 0.7 M guanidine hydrochloride.
Method: The guanidine hydrochloride used to solubilize C34-GCN4 absorbs light at wavelengths below 210 nm. Experimental conditions were PBS, pH 7.0, 25° C.
CD spectra were measured on an Aviv 60DS spectrapolarimeter at 25° C. in phosphate buffered saline (PBS; 10 mM sodium phosphate, 150 mM NaCl, pH 7.0). […] Guanidine concentrations were measured by refractometry.
Data set [4] concerns the target HIV-1 gp41 envelope glycoprotein (HXB2 envelope) (HIV-1 (HXB2)) (UniProt P04578). In words: cell-based or functional assay.
For data set [5] the following is noted: 10 μM; Gonzalez et al. 1996; cited from earlier work.
For data set [6], the system named is HIV-1 envelope mediated fusion of CHO gp160 cells with CD4 HeLa cells. Particulars: C34 data taken from Chan et al., PNAS 95:15613 (1998); read-out: Cell-Cell Fusion Assay (IC50 in nM); cited from earlier work.
For data set [7], the system named is recombinant luciferase-expressing HIV-1 infecting HOS-CD4/Fusin cells. Particulars: C34 data taken from Chan et al., PNAS 95:15613 (1998); read-out: Viral Infectivity Assay (IC50 in nM); cited from earlier work.

pIC50: −log10 of the molar value. Values joined by “and” are separate entries in the source; they are usually repeats but may differ in a detail not shown here. Identical values can stand only once. Like-named read-outs stand apart in the source and are kept apart here. A value given as a limit tells only on which side of the number the result lay.

Consider “Ac-WRMWDLEIKVYTLLIKNLILESEVQQLKNLVELR-NH2 (C-terminus assumed) [Peptide C34-GCN4]”, for which the solubility – broadly, how much of the substance goes into solution per volume – is under 1 µM. Also, the “inhibition of cell-cell fusion, in words” value in data set [1] was “strong inhibitory potency”. Further, the 50% inhibitory concentration (IC50) (commonly the concentration at which inhibition is half-maximal) in data set [1] (read-out: Cell-Cell Fusion Assay (IC50 in nM), CHO cells expressing HXB2 envelope co-cultured with CD4 HeLa cells, 20 hours, 1% DMSO) is 4.6 nM and 5 nM. Further, the IC50 in data set [2] (read-out: Viral Infectivity Assay (IC50 in nM), HOS cells expressing CD4 and CXCR4, luciferase 48 hours post-infection, 1% DMSO) turned out to be 16 nM. For the same substance, the “[Θ]222 value” in data set [3] (listed as C34-GCN4 peptide) is −12,400 deg cm^2 dmol^−1 and −12,000 deg cm^2 dmol^−1.
In data set [4], GCN4 homodimer showed an inhibition of cell-cell fusion of over 50 µM and an inhibition of viral infectivity of over 50 µM.
With C34-GCN4 peptide (designed binder), in data set [4], the Cell-Cell Fusion Assay (IC50 in nM) turned out to be 5 nM; the Viral Infectivity Assay (IC50 in nM) was 16 nM; the inhibition of cell-cell fusion, IC50 was 4.6 nM; the inhibition of viral infectivity, IC50 is 19 nM.
As for “GCN4 homodimer: covalent homodimer of CGG-GCN4”, in data set [1], the “inhibition of cell-cell fusion, in words” value is on record as “no activity”. The “Cell-Cell Fusion Assay (IC50 in nM)” value in data set [1] (CHO cells expressing HXB2 envelope co-cultured with CD4 HeLa cells, 20 hours, 1% DMSO) was “none”. Also, the pIC50 in data set [1] (read-out: no inhibitory activity in cell-cell fusion up to stated concentration, highest concentration without measurable inhibition) was under 4.30; in data set [2] (read-out: no inhibitory activity in viral infectivity up to stated concentration, highest concentration without measurable inhibition), under 4.30. Further, in data set [2], the “inhibition of viral infectivity, in words” value is “no activity”. For the same substance, in data set [2] (HOS cells expressing CD4 and CXCR4, luciferase 48 hours post-infection, 1% DMSO), the “Viral Infectivity Assay (IC50 in nM)” value is recorded as “none”. Further, the “transition midpoint under temperature denaturation” value in data set [5] is “over 100 °C”.
For “C34: linear C-peptide of HIV-1 gp41 (SEQ ID NO: 2), unstructured in solution [Peptide C34]”, in data set [3], the “[Θ]222 value” is −3,800 deg cm^2 dmol^−1. Also, the results for the IC50 in data set [6] and in data set [7] were 0.6 nM and 2.1 nM, respectively.
